PubChem BioAssay (NCI)
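48-hour exposure; five concentrations; linearly interpolated endpoints. GI50 = concentration required for 50% inhibition of growth. TGI marks complete inhibition of growth.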

Columns and labels:
Assay in all cases: inhibition of tumour cell growth, NCI panel, 48 h
CAKI-1 renal = system: CAKI-1 renal
HCT-15 colon = system: HCT-15 colon
HOP-62 NSCLC = system: HOP-62 NSCLC
HT29 colon = system: HT29 colon
IGROV1 ovarian = system: IGROV1 ovarian
K-562 leukemia = system: K-562 leukemia
PC-3 prostate = system: PC-3 prostate
SW-620 colon = system: SW-620 colon
TK-10 renal = system: TK-10 renal
SF-539 CNS = system: SF-539 CNS

Structure (SMILES) | TGI (CAKI-1 renal) | TGI (HCT-15 colon) | TGI (HOP-62 NSCLC) | TGI (HT29 colon) | TGI (IGROV1 ovarian) | TGI (K-562 leukemia) | TGI (PC-3 prostate) | TGI (SW-620 colon) | TGI (TK-10 renal) | TGI (SF-539 CNS) | GI50 (CAKI-1 renal) | GI50 (HCT-15 colon) | GI50 (HT29 colon) | GI50 (IGROV1 ovarian) | GI50 (K-562 leukemia) | GI50 (PC-3 prostate) | GI50 (SF-539 CNS) | GI50 (SW-620 colon) | GI50 (TK-10 renal)
O=c1[nH]c(-c2ccc(Cl)cc2)cc2ccsc12 | 7.04 µM | > 100 µM | > 100 µM | > 100 µM | > 100 µM | > 100 µM | > 100 µM | > 100 µM | 8.22 µM | – | – | – | – | – | – | – | – | – | –
CCOC(=O)C1=C(C)N(c2ccc(Cl)cc2)C2(O)C=CC(Nc3ccc(Cl)cc3)=C3C(=O)N(c4ccccc4)C(=O)C312 (stereo not given) | 13.5 µM | 16.3 µM | 14.9 µM | 16.9 µM | 21.9 µM | > 100 µM | 22.8 µM | 14.6 µM | 52.1 µM | 18.3 µM | – | – | – | – | – | – | – | – | –
COc1cccc2c1C(=O)c1c(O)c3c(c(O)c1C2=O)CC(O)(C(C)=O)CC3O (stereo not given) | 21.8 µM | 39.8 µM | 11.3 µM | 36.4 µM | 29.7 µM | 39.3 µM | – | 32.7 µM | – | 21.3 µM | – | – | – | – | – | – | – | – | –
CN1CCN(Cn2nc(-c3cc(F)c(Cl)cc3Cl)oc2=S)CC1 | > 100 µM | > 100 µM | – | 54.7 µM | > 100 µM | > 100 µM | > 100 µM | 39.4 µM | > 100 µM | 71.5 µM | 34.2 µM | 39.7 µM | 24.5 µM | 37.1 µM | 41.4 µM | 43 µM | 29.9 µM | 20 µM | 39.3 µM
